For assay [1], the target named is T1, p300 (CH1 domain, residues 330–420) (Homo sapiens, UniProt Q09472).
T1 construct: GST (N, cleaved yes); made in house; host or cells: E. coli BL21 pLysS (pGEX-4T1-p300)
Put plainly: ITC of chemically synthesized HIF-1α, CITED2 and CITIF peptides binding to p300. The note with it: ITC, 35 °C, 40 mM sodium phosphate, pH 7.5, 100 mM NaCl, 1 mM DTT, 5 μM protein in cell, 60 μM ligand in syringe. Here is the method: Raw ITC (upper) data and fitted thermogram (lower) (40 mM sodium phosphate, pH 7.5 100 mM NaCl, 1 mM DTT buffer using 5 μM protein in the cell and 60 μM ligand in the syringe at 35 °C) error bars represent the estimated integration errors; (b) Thermodynamic signatures for each interaction.
Figure S8 (a) Sequences of the truncated CITED2 peptides and isothermal titration […]
µM peptide in the syringe. All measurements were carried out 40 mM sodium phosphate, pH 7.5 100 mM NaCl, 1 mM DTT buffer at 35°C. Error bars represent the estimated integration […]
Table S2 Thermodynamic parameters for shortened CITED2 sequences. 68% confidence intervals for the fitting are shown in brackets. Data fitted to a single binding site model, fixed 1:1 stoichiometry with incompetent protein fraction as an adjustable parameter. […]
(§1) Isothermal titration calorimetry
(§2) Prior to ITC measurement p300 CH1 was dialysed or run on S75 column in the buffer used for titration, and the same buffer was used to dissolve the pure peptides. Experiments with […]
(§3) MicroCal iTC200 instrument with 10 µM protein in the cell and 100 µM ligand in the syringe at 37°C, using 2 µl injections and 120 or 180 s spacing between injections. Experiments with the […]
(§4) instrument using 3-5 µM protein in the cell and 40-60 µM ligand in the syringe at 35°C, using 5 µl injections and 180 s spacing between injections, for 40 injections. Titrations were performed in 40 mM Na-phosphate, pH 7.5 100 mM NaCl, 1 mM DTT buffer except for GFP-HIF-1α and variants for which 25 mM Tris-HCl, 150 mM NaCl, 1mM DTT, pH 7.4 buffer was used. Data were analysed using NITPIC3 and fitted using SEDPHAT4 to a single binding site model (fixed 1:1 stoichiometry), with baseline and incompetent protein fraction as adjustable parameters. 68 % confidence intervals for the fitted values were determined using the automatic confidence interval search implemented in SEDPHAT. Figures were prepared using […]

In assay [2] the target is T2, CITED2216-259 /p300 complex (Homo sapiens, UniProt Q09472).
T2 construct: GST (N, cleaved yes); made in house; host or cells: p300: E. coli BL21 pLysS (pGEX-4T1-p300); CITED2 peptide: chemical synthesis
T2 sequence (Q09472 330-420, one chain of several): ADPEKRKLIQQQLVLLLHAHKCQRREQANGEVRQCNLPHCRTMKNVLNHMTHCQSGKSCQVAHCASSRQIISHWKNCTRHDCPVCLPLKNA
Put plainly: Competition ITC: HIF-1α776-826 titrated to preformed CITED2216-259/p300 complex. It counts as binding. Conditions: titrated to CITED2216-259/p300 complex. Here is the method:
(§5) Figure S7Apparent KD fits for the competition ITC experiment using a competition interaction model. p300/ligand complexes were prepared by titrating the appropriate ligand first to p300 in the cell using 3-5 µM protein concentration, the titration stopped when it reached close to […]
(§6) (Table S5) Then it was titrated with the competitor ligand using 30-60 µM concentration in the syringe, 5 or 10 uL injections with 180-240 s spacing. Background titrations were performed without p300 in the cell and subtracted from the measurements. Apparent KD,app and ΔH app values data were fitted to a competition model (Fig. S17) in SEDPHAT. Error bars represent the estimated integration errors.
(1 picture or pasted object on this page, not shown here)
Table S1 Apparent KD values and thermodynamic parameters for competition ITC experiments derived from fitting the data to a competition model depicted in Fig. S17. confidence intervals of the binding parameters are shown in brackets. […]
as §1
Prior to ITC measurement p300 CH1 was dialysed or run on S75 column in the buffer used for titration, and the same buffer was used to dissolve the pure peptides. […]
37°C, using 2 µl injections and 120 or 180 s spacing between injections. Experiments with the […]
as §4
Competition ITC measurements
Competition ITC measurements were performed in Microcal VP ITC. […]

The target of assay [3] is T1, p300 (CH1 domain, residues 330–420). Put plainly: ITC of expressed HIF-1α, CITED2 and CITIF peptides binding to p300. Conditions: ITC, expressed peptides, conditions as Fig. S6 (40 mM sodium phosphate, pH 7.5, 100 mM NaCl, 1 mM DTT, 35°C). The procedure:
We hypothesized that it would be possible to enhance the affinity of HIF-1α for p300 by hybridising key regions of both CITED2 and HIF-1α (see later). We first measured the affinity of the parent peptides. A particular difficulty in comparing these peptide sequences is the different length used in different studies.[28,33,35,36] […]
data and fitted thermogram (lower) (40 mM sodium phosphate, pH 7.5 100 mM NaCl, 1 mM DTT buffer using 5 µM protein in the cell and 60 µM ligand in the syringe at 35°C); (b) Thermodynamic signatures for each interaction. […]
as §1, §2, §3, §4

The target in the next assay is T3, p300 (Homo sapiens, UniProt Q09472).
T3 construct: GST (N, cleaved yes); made in house; host or cells: E. coli BL21 pLysS (pGEX-4T1-p300)
T3 sequence (Q09472 330-420): as the sequence (Q09472 330-420, one chain of several) above
In words: Global fitting of ITC titrations with ternary complex model: binary binding parameters. A general note: Isothermal titration calorimetry measures the heat released or taken up as one component is titrated into another.

The target in a further assay is p300 CH1 (Homo sapiens) (UniProt Q09472). In words: anisotropy. Conditions: cited from earlier work.
The target in assay [4] is T4, HIF-1α786-826/p300 complex (Homo sapiens, UniProt Q09472).
T4 construct: GST (N, cleaved yes); made in house; host or cells: p300: E. coli BL21 pLysS (pGEX-4T1-p300); HIF-1α peptide: chemical synthesis
T4 sequence (Q09472 330-420, one chain of several): as above
In words: Competition ITC: CITED2 peptide titrated to preformed p300/HIF-1α786–826 complex. It counts as binding. Conditions: titrated to HIF-1α786-826/p300 complex, fitted with fixed KD = 42.9 nM and ΔH = -25.8 kcal/mol for HIF-1α786-826, read-out: KD,app CITED2. The procedure:
as §5, §6
(1 picture or pasted object on this page, not shown here) […]
instrument using 3-5 µM protein in the cell and 40-60 µM ligand in the syringe at 35°C, using 5 µl injections and 180 s spacing between injections, for 40 injections. […] Data were analysed using NITPIC3 and fitted using SEDPHAT4 to a single binding site model (fixed 1:1 stoichiometry), with baseline and incompetent protein fraction as adjustable parameters. 68 % confidence intervals for the fitted values were determined using the automatic confidence interval search implemented in SEDPHAT. […]

The target in assay [5] is GST-tagged p300 CH1 domain (residues 330–420) (UniProt Q09472). In words: SEC; size exclusion chromatography of the GST fusion (protein characterization, Fig. S15). On the technique in general: Size exclusion chromatography separates by hydrodynamic size, large species first.
The target in assay [6] is T5, p300 CH1 domain (residues 330–420) (UniProt Q09472 330-420).
T5 construct: p300 CH1 domain, residues 330–420; The cleavage of GST is said for the anisotropy control; also called p300 with the GST tag cleaved; source: recombinantly expressed as a fusion protein with GST, GST tag cleaved
T5 sequence (Q09472 330-420): as the sequence (Q09472 330-420, one chain of several) above
Put plainly: ITC; competition: CITED2 peptides titrated into the preformed p300/HIF-1α 776–826 complex (1.2–1.6 equivalents of HIF-1α); 40 mM sodium phosphate, pH 7.5, 100 mM NaCl, 1 mM DTT, 35 °C; competitive binding model; apparent. Conditions: both partners purified.

Assay [7] deals with T5, p300 CH1 domain (residues 330–420). In words: ITC; peptide in the syringe, p300 in the cell (Fig. 4: 5 μM protein, 60 μM ligand); 40 mM sodium phosphate, pH 7.5, 100 mM NaCl, 1 mM DTT, 35 °C; single-site model, fixed 1:1 stoichiometry. Conditions: both partners purified.
Assay [8] deals with T6, GST-p300 (GST-tagged p300 CH1 domain, residues 330-420) (human, UniProt Q09472 330-420).
T6 construct: human p300, CH1 domain (zinc finger, TAZ type 1), residues 330-420; For the fluorescence anisotropy experiments the GST cleavage step was omitted (D1:p17); source: E. coli (pGEX-6P-2 in Rosetta 2 or pGEX-4T-1 in BL21 pLysS), glutathione beads, eluted with glutathione, SEC
T6 sequence (Q09472 330-420): as the sequence (Q09472 330-420, one chain of several) above
In words: fluorescence polarisation; fluorescence anisotropy competition; 5 nM FAM-HIF786-826 as tracer, two-fold dilution series of the competitor from 10 µM over 24 points; 25 mM Tris-HCl, 150 mM NaCl, 1 mM DTT, pH 7.4; concentration of p300 not stated. The note with it: both partners purified. (Fluorescence polarisation rises when a labelled molecule tumbles more slowly, as on binding a larger partner.)

The mark [9] stands for this setting: 68% confidence interval in brackets.
Setting [10] is: global fit 1 (CITED224-259 and HIF776-826 titrations).
The mark [11] stands for this setting: global fit 2 (CITED216-269 and HIF776-826 titrations).
Where [12] appears, read: global fit 3 (CITED2216-248 and HIF776-826 titrations).

The values that follow come from publication PMC9092470, “Understanding p300-transcription factor interactions using sequence variation and hybridization†” (RSC Chemical Biology, 2022).

T1 sequence (Q09472 330-420): as the sequence (Q09472 330-420, one chain of several) above

For the molecule `CC[C@H](C)[C@H](NC(=O)[C@@H]1CCCN1C(=O)[C@H](C)NC(=O)[C@H](CC(N)=O)NC(=O)[C@@H](NC(=O)[C@H](CCC(=O)O)NC(=O)[C@H](CS)NC(=O)[C@H](CC(=O)O)NC(=O)[C@H](Cc1ccc(O)cc1)NC(=O)[C@H](CO)NC(=O)[C@@H](NC(=O)[C@H](CC(C)C)NC(=O)[C@H](CCC(N)=O)NC(=O)[C@@H]1CCCN1C(=O)[C@H](CC(C)C)NC(=O)CNC(=O)[C@H](CO)NC(=O)[C@H](CCC(=O)O)NC(=O)[C@H](CC(=O)O)NC(=O)[C@H](CCSC)NC(=O)[C@H](CO)NC(=O)[C@H](CCC(N)=O)NC(=O)CNC(=O)[C@H](CC(C)C)NC(=O)[C@H](CC(C)C)NC(=O)[C@H](CCCNC(=N)N)NC(=O)[C@H](CS)NC(=O)[C@H](C)NC(=O)[C@H](CC(C)C)NC(=O)[C@H](CC(=O)O)NC(=O)[C@H](CO)NC(=O)[C@H](CO)NC(=O)CNC(=O)[C@@H]1CCCN1C(=O)CN)[C@@H](C)O)C(C)C)C(=O)N[C@@H](CCC(N)=O)C(=O)NCC(=O)N[C@@H](CO)C(=O)N[C@@H](CCCNC(=N)N)C(=O)N[C@@H](CC(N)=O)C(=O)N[C@@H](CC(C)C)C(=O)N[C@@H](CC(C)C)C(=O)N[C@@H](CCC(N)=O)C(=O)NCC(=O)N[C@@H](CCC(=O)O)C(=O)N[C@@H](CCC(=O)O)C(=O)N[C@@H](CC(C)C)C(=O)N[C@@H](CC(C)C)C(=O)N[C@@H](CCCNC(=N)N)C(=O)N[C@@H](C)C(=O)N[C@@H](CC(C)C)C(=O)N[C@@H](CC(=O)O)C(=O)N[C@@H](CCC(N)=O)C(=O)N[C@H](C(=O)N[C@@H](CC(N)=O)C(=O)O)C(C)C` [HIF-1α776–826], the “ΔS, synthetic peptides” value in [1] is −41 cal mol^−1 K^−1. The “ΔH, synthetic peptides” value in [1] (setting [9]) was -95.8 kJ/mol. Further, the Kd in assay [2] (fixed KD = 26.3 nM for CITED2, treat with caution, small heat change, read-out: KD,app HIF-1α) amounted to 0.695 µM. Further, in assay [2] (treat with caution), the “ΔHapp, HIF-1α” value was -110.3 kJ/mol and the “ΔSapp, HIF-1α” value is reported as -57.4 cal/mol/K. For the same molecule, the “ΔS, expressed peptides” value in [3] is −39.2 cal mol^−1 K^−1. In addition, the “ΔH, expressed peptides” value in assay [3] (setting [9]) is -92.9 kJ/mol. On p300 (setting [10]), this molecule displayed a ΔH of -95 kJ/mol and a ΔS of -40.3 cal mol-1 K-1. At p300 (setting [11]), the ΔH was -95.8 kJ/mol and the ΔS is listed as -41.1 cal mol-1 K-1. On p300 (setting [12]), the ΔH is -116 kJ/mol and the ΔS was -57.4 cal mol-1 K-1.

CITED2 216-269 (from UniProt Q99967): the Kd with p300 CH1 (Homo sapiens) is 0.01 µM.

With “Ac-DEEVLMSLVIEMGLDRIKELPELWLGQNEFDFMTDF-NH2 [CITED2_224–259]”, the Kd in assay [4] came to 0.0084 µM.

As a reminder, the stoichiometry N is a count of units in the complex or per binding partner. The molecule “GST-tagged p300 CH1 domain (residues 330–420) (from UniProt Q09472 330-420) (domain or fragment)” showed a stoichiometry N in assay [5] of 2.

As to HIF-1α 776-826 (from UniProt Q16665), the Kd with p300 CH1 (Homo sapiens) was 0.01 µM.

NVIDTDFIDEEVLMSLVIEMGLDRIKELPELWL (peptide, UniProt Q99967 216-248, looked up) [CITED2 216–248 (C-terminally truncated CITED2)]: the “KD,app (competition against the preformed p300/HIF-1α 776–826 complex)” value in assay [6] is 0.0469 µM. The same molecule showed a Kd in assay [7] of 0.303 µM.

B1: HIF-1α786-826 (expressed, His10-GFP cleaved off) (peptide)
peptide: GPGSSMDESGLPQLTSYDCEVNAPIQGSRNLLQGEELLRALDQVN
notes: four residues (Gly-Pro-Gly-Ser) left from the PreScission protease site; source: E. coli Rosetta 2, from inclusion bodies, His-trap, on-column PreScission cleavage, RP-HPLC; not shown: GFP, N-terminal, cleaved
In general, IC50 refers to the concentration at which inhibition is half-maximal. A low value points to higher potency. B1 showed an IC50 in assay [8] of 0.059 ± 0.006 µM.

DEEVLMSLVIEMGLDRIKELPELWL (peptide, UniProt Q99967 224-248, looked up) [CITED2 224–248 (truncated CITED2)] returned a Kd in assay [7] of 10.4 µM.
